Data reported in patent publication US20080027088A1, “Imidazole-Based Hmg-Coa Reductase Inhibitors” (Warner-Lambert Company, LLC, priority 2004, published 2008).

Assays:
Format in all cases: in vivo
[1] = test system: ApoE KO mice fed a Western diet; assay: Plasma serum amyloid A by ELISA, cuffed femoral artery study; conditions: 4 weeks
Description: (§1) Plasma lipids and serum amyloid A measurement—Mice were sacrificed by CO2 inhalation and blood was collected through cardiac puncture. Plasma concentrations of total cholesterol and triglyceride were determined enzymatically on a Cobas Mira Plus auto-analyzer using Cholesterol R1 and Triglycerides Reagent methods, respectively (Roche Diagnostics, Indiana, USA). Colormetric changes were measured at 500 nm. Lipoproteins were separated from mouse plasma by fast-protein liquid chromatography utilizing a Superose 6HR column. Cholesterol distribution among lipoproteins was determined by in-line post column analysis (K. A. Kieft, T. M. Bocan and B. R. Krause, J. Lipid Res. 1991; 32:859-66). Serum Amyloid A (SAA) protein in plasma was measured by ELISA according to the manufacturer's instructions (Biosource).
(§2) FIG. 5. Lesion Development in the Cuffed Femoral Artery of ApoE KO mice Fed a Western Diet. Mice were anesthetized and the right femoral artery was dissected from its surroundings. A nonconstrictive polyethylene cuff (Portex, 0.40-mm inner diameter, 0.80-mm outer diameter, and 1.5-mm length) was placed looselyaround the right femoral artery. […] Atherosclerotic lesion (black bar) and macrophage size (gray bar) in the femoral artery were quantified by using Image Pro Plus software (FIG. 5A). Plasma serum amyloid A levels were determined by colormetric ELISA (FIG. 5B). […]

[2] = test system: ApoE KO mice fed a Western diet; assay: Plasma total cholesterol and triglyceride, 4 weeks myriocin diet admix
Description: (§3) Animal experiments—Male C57BI/6J and ApoE KO mice on C57BI/6J background were obtained from the Jackson Laboratory (Bar Harbor, Me.) or Taconic (Germantown, N.Y.) (Plaque formation in ApoE KO mice is lipid-driven (A. S. Plump et al., Cell. 1992;71 (2):343-53)). Myriocin was mixed with Western diet containing 0.21% cholesterol and 21% fat. 8-12-week-old mice received 0.3 mg myriocin/kg/day for 12 weeks (Table 1). 10-12 week-old ApoE KO mice (n=8) were pre-fed a western diet for 2 weeks and mice received various concentrations of myriocin for 4 weeks in diet admix. Control groups consisted of ApoE KO mice fed normal chow or Western diet without myriocin, and normal chow-fed C57BI/6J mice. Body weight and chow feeding was measured every week to examine the food consumption. For the femoral artery cuff model, 8-10 week-old male ApoE KO mice were anethetized and the right femoral artery was dissected from its surroundings. A nonconstrictive polyethylene cuff (Portex, 0.40-mm inner diameter, 0.80-mm outer diameter, and 1.5-mm length) was placed looselyaround the right femoral artery.
as §1
FIG. 3. Plasma Cholesterol and Triglycerides in ApoE KO Mice Fed a Western Diet. After 4 weeks of diet admix myriocin treatment, mice were sacrificed and plasma was isolated. Plasma concentrations of total cholesterol (A) and triglyceride (B) were determined enzymatically on a Cobas Mira Plus auto-analyzer using Cholesterol R1 and Triglycerides Reagent methods, respectively. Colormetric changes were measured at 500 nm. The values reported are mean±SEM (n=8, *P<0.01).

[3] = test system: ApoE KO mice fed a Western diet; assay: Plasma SM/PC ratio (HPLC) and ceramide (LC/MS/MS), 12 weeks; conditions: 0.3 mg/kg/day
Description: Analysis of Sphingolipids and Phospholipids by LC/MS and HPLC-Total lipids were extracted by the modified method of Bligh-Dyer extraction (E. G. Bligh and W. J. Dyer, Can. J. Med. Sci. 1959;37:911-917; and D. K. Perry, A. Bielawska and Y. A. Hannun, Methods Enzymol. 2000;312:22-31). A Micromass (Waters Corp., Milford, Mass.) Quattro Ultima tandem quadrupole mass spectrometer with a standard Z-sprayTM ion source, set to electrospray positive ionization mode, with MassLynxTM version 3.5 operating software, was used for all quantitative determinations. Source conditions were typically as follows: capillary 3.5 kV, source temperature 110 degrees C., and desolvation temperature 325 degrees C. […] The following ion transitions were used for quantification: sphingomyelin (704→184 m/z), sphinganine (302→284 m/z), ceramide (566→264 m/z) and psychosine (462→282 m/z) as an internal standard. […] For the quantitative method, the analytical column was a Phenomenex (Torrance, Calif.) Polar-RP (2.0×150 mm, 4 μm) with a […] […] Lipid extracts were analyzed by HPLC and evaporative light scattering detector to determine plasma sphingomyelin and phosphatidylcholine (PC) levels (R. Homan and M.K. Anderson, J. Chromatogr. B. Biomed. Sci. Appl. 1998;708:21-6). […] Plasma concentrations of SM and PC were determined, and SM/PC ratio (FIG. 13A) was calculated using HPLC. […]

[4] = test system: ApoE KO mice fed a Western diet; assay: Lesion development in the cuffed femoral artery, 4 weeks
Description: as §3
For histological analysis, the mice were perfused and fixed in Zinc-Tris fixative. Paraffin embedded sections were stained with Masson's Trichrome. Intimal macrophages were immunohistochemically stained using MAC-2 antibody (clone M3/38 from Cedarlane Laboratories Limited) counterstained with Verhoeff elastic stain. T-lymphocytes were immunohistochemically stained with rat CD3 antibody (clone CD3-12, Serotec). Lesion thickness and area occupied by macrophages were determined using Image Pro Plus software.
as §2, with “surroundings.” for “surroundings. A nonconstrictive polyethylene cuff (Portex, 0.40-mm inner diameter, 0.80-mm outer diameter, and 1.5-mm length) was placed looselyaround the right femoral artery.”

[5] = 0.3 mg/kg/day, vs no-myriocin control

With `CCCCCCC(=O)CCCCCC/C=C/C[C@@H](O)[C@H](O)[C@@](N)(CO)C(=O)O` [myriocin] the “plasma serum amyloid A lowered” value [1] was 84%, the “effect on plasma TG levels” value ([2]; 0.1 mg/kg/day) was “no effect” and the plasma cholesterol reduction ([2]; 0.1 mg/kg/day, vs no-myriocin control) was 46%. The “plasma TG levels lowered” value ([2]; 0.3 mg/kg/day) was 44%, the “plasma cholesterol decrease (maximum)” value [2, 5] was 76% and the “plasma ceramide levels reduced” value [3] was 60%. The “effect on plasma SM/PC ratio” value ([3]; vs Western diet-fed group) was “did not affect”, the “reduction of development of atherosclerotic lesions, cuffed femoral artery” value ([4]; 0.1 mg/kg/day) was 43% and the “reduction of macrophage accumulation, cuffed femoral artery” value ([4]; 0.1 mg/kg/day) was 47%. For the same compound, the “lesion area reduced, cuffed femoral artery” value [4, 5] was “more than 98%”.
